Target: T1, aldosterone receptor (Rattus norvegicus, UniProt P22199)
T1 construct: from tissue; host or cells: whole animal: adrenalectomised male Sprague-Dawley rats
T1 sequence (P22199 1-981): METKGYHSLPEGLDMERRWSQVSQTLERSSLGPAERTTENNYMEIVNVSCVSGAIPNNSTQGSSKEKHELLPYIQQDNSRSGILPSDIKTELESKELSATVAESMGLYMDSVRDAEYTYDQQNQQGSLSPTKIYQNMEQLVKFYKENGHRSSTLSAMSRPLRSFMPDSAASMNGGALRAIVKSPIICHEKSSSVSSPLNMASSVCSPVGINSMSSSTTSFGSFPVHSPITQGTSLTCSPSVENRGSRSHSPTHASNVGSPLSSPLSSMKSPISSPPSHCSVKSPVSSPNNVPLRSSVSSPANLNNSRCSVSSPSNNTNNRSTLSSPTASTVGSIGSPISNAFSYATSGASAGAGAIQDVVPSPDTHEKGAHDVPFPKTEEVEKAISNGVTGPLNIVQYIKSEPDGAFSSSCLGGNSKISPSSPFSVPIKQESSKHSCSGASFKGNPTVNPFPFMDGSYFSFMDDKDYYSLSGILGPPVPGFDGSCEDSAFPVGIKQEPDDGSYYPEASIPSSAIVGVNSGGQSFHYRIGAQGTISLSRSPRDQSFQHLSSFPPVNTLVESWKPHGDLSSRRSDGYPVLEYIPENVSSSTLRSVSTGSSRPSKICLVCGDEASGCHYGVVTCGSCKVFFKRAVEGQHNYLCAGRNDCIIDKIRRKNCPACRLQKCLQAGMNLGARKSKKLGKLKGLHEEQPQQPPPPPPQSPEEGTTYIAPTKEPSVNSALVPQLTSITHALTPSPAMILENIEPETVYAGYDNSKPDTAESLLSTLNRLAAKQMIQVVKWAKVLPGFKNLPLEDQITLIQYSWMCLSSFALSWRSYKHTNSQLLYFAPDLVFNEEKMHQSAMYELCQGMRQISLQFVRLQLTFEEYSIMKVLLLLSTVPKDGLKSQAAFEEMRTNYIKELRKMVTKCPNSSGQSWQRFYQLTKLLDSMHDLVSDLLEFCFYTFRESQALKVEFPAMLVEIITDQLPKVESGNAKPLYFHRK
Experiment: Kagawa model, urinary Na+/K+ ratio in adrenalectomised rats given aldosterone
Assay type: in vivo
Details: adrenalectomized rats, oral gavage, aldosterone 3 μg/animal s.c.
Text: To evaluate the in vivo activity of test compounds as aldosterone receptor antagonists, the Kagawa model was used, with some modifications. The original model first described by Kagawa (Endocrinology 1960; 67:125-131) has been widely utilised and reported in several published papers.
Bilateral adrenalectomised male Spague-Dawley rats aging approximately 5 weeks and weighing between 150 and 170 g at the time of surgery were obtained from Charles River (UK) Ltd., Margate, Kent. Following adrenalectomy, animals were maintained with standard diet and 0.9% (w/v) saline to drink. Saline replaces sodium ions lost due to the absence of the adrenal glands.
The animals were maintained for three days in standard condition and were trained in metabolic cages on one occasion prior to the test day for approximately 5 hours.
Food was withheld from animals overnight prior to dosing. Saline was available ad libitum.
Approximately 2 hours before dosing, saline was removed from the animals to ensure similar hydration levels. […]
The cumulative urine volume was measured and collected for analysis at 0-3 and 3-6 hours post-aldosterone. Urine was analysed for urinary sodium and potassium concentration. […]
Mean Na^+:K^+ ratios from each group were calculated. […]
The data were analysed using one-way Analysis of Variance (ANOVA). […]

CCS[C@@H]1CC2=CC(=O)CC[C@]2(C)C2=CC[C@@]3(C)C(CC[C@@]34CCC(=O)O4)C21 (stereo partly shown) [Example 13]
urinary Na+/K+ ratio relative to animals only receiving aldosterone: statistically significant increase

Source: US20070066580A1, “Novel aldosterone antagonists and uses thereof” (Recordati Ireland Limited, priority 2005, published 2007)
